Results published in article PMC8037182, “Solvothermal Synthesis of Multiple Dihydropyrimidinones at a Time as Inhibitors of Eg5” (Molecules, 2021).

Key:
Hela cell line = experiment: Cytotoxicity MTS assay, Hela cell line; assay type: cell-based; conditions: for OD490 value, Mean / OD490 value, Well 1 / OD490 value, Well 2 / OD490 value, Well 3: Hela cell line, MTS
Procedure: (§1) The positive compounds (IC50 < 100 μM) obtained from the primary Eg5 motor protein ATPase assay were tested for antiproliferative activity in vitro against Caco-2 cell line, Hela cell line, L929 cell line and T24 cell line by performing MTS assay. Cells were introduced into 96-well plates at a density of 1000 cells per well. After 24 h incubation, the cells were exposed with compounds at final concentrations ranging from 0.5 to 100 µM for 24 h. DMSO was used at a final concentration of 0.025% as blank control, monastrol was used as the positive control. Then 20 µL (CellTiter 96® AQueous One Solution Promega, Madison, WI, USA) reagent was added in each well. After 2 h at 37 °C in a 80% humidified, 5% CO2 atmosphere, the absorbance at 490 nm was recorded using a microplate reader (BIO-RAD iMark^TM). The results were obtained in three independent duplicate experiments. The primary data were shown in Supplementary Materials Tables S4–S7. The IC50 values for these compounds were calculated from a non-linear regression graph plotted between the percentage of cell viability and concentration with SPSS17.0 software.

T24 cell line = experiment: Cytotoxicity MTS assay, T24 cell line; assay type: cell-based; conditions: for OD490 Mean / OD490 Well 1 / OD490 Well 2 / OD490 Well 3: T24 cell line
Procedure: as §1

Structure (SMILES): CCOc1ccccc1C1NC(=S)NC(C)=C1C(=O)Nc1ccc(Cl)cc1 (centres unmarked) [C9]
- OD490 value, Mean (Hela cell line; 0.5μM, first assay): 2.5086
- OD490 value, Well 1 (Hela cell line; 0.5μM, first assay): 2.5337
- OD490 value, Well 2 (Hela cell line; 0.5μM, first assay): 2.5147
- OD490 value, Well 3 (Hela cell line; 0.5μM, first assay): 2.4773
- OD490 value, Mean (Hela cell line; 0.5μM, second assay): 2.5027
- OD490 value, Well 1 (Hela cell line; 0.5μM, second assay): 2.5377
- OD490 value, Well 2 (Hela cell line; 0.5μM, second assay): 2.5102
- OD490 value, Well 3 (Hela cell line; 0.5μM, second assay): 2.4603
- OD490 value, Mean (Hela cell line; 0.5μM, third assay): 2.5209
- OD490 value, Well 1 (Hela cell line; 0.5μM, third assay): 2.7845
- OD490 value, Well 2 (Hela cell line; 0.5μM, third assay): 2.5536
- OD490 value, Well 3 (Hela cell line; 0.5μM, third assay): 2.2245
- OD490 value, Mean (Hela cell line; 1μM, first assay): 2.3583
- OD490 value, Well 1 (Hela cell line; 1μM, first assay): 2.1436
- OD490 value, Well 2 (Hela cell line; 1μM, first assay): 2.5164
- OD490 value, Well 3 (Hela cell line; 1μM, first assay): 2.4149
- OD490 value, Mean (Hela cell line; 1μM, second assay): 2.3955
- OD490 value, Well 1 (Hela cell line; 1μM, second assay): 2.2145
- OD490 value, Well 2 (Hela cell line; 1μM, second assay): 2.4935
- OD490 value, Well 3 (Hela cell line; 1μM, second assay): 2.4784
- OD490 value, Mean (Hela cell line; 1μM, third assay): 2.4734
- OD490 value, Well 1 (Hela cell line; 1μM, third assay): 2.4685
- OD490 value, Well 2 (Hela cell line; 1μM, third assay): 2.5532
- OD490 value, Well 3 (Hela cell line; 1μM, third assay): 2.3985
- OD490 value, Mean (Hela cell line; 10μM, first assay): 2.3086
- OD490 value, Well 1 (Hela cell line; 10μM, first assay): 2.1660
- OD490 value, Well 2 (Hela cell line; 10μM, first assay): 2.3778
- OD490 value, Well 3 (Hela cell line; 10μM, first assay): 2.3820
- OD490 value, Mean (Hela cell line; 10μM, second assay): 2.1859
- OD490 value, Well 1 (Hela cell line; 10μM, second assay): 2.2135
- OD490 value, Well 2 (Hela cell line; 10μM, second assay): 2.1456
- OD490 value, Well 3 (Hela cell line; 10μM, second assay): 2.1987
- OD490 value, Mean (Hela cell line; 10μM, third assay): 2.4047
- OD490 value, Well 1 (Hela cell line; 10μM, third assay): 2.2123
- OD490 value, Well 2 (Hela cell line; 10μM, third assay): 2.5652
- OD490 value, Well 3 (Hela cell line; 10μM, third assay): 2.4365
- OD490 value, Mean (Hela cell line; 25μM, first assay): 1.8211
- OD490 value, Well 1 (Hela cell line; 25μM, first assay): 1.4666
- OD490 value, Well 2 (Hela cell line; 25μM, first assay): 1.9622
- OD490 value, Well 3 (Hela cell line; 25μM, first assay): 2.0346
- OD490 value, Mean (Hela cell line; 25μM, second assay): 1.8416
- OD490 value, Well 1 (Hela cell line; 25μM, second assay): 1.7589
- OD490 value, Well 2 (Hela cell line; 25μM, second assay): 1.8637
- OD490 value, Well 3 (Hela cell line; 25μM, second assay): 1.9021
- OD490 value, Mean (Hela cell line; 25μM, third assay): 1.8662
- OD490 value, Well 1 (Hela cell line; 25μM, third assay): 1.7769
- OD490 value, Well 2 (Hela cell line; 25μM, third assay): 1.8252
- OD490 value, Well 3 (Hela cell line; 25μM, third assay): 1.9965
- OD490 value, Mean (Hela cell line; 50μM, first assay): 1.6538
- OD490 value, Well 1 (Hela cell line; 50μM, first assay): 1.2953
- OD490 value, Well 2 (Hela cell line; 50μM, first assay): 1.8006
- OD490 value, Well 3 (Hela cell line; 50μM, first assay): 1.8654
- OD490 value, Mean (Hela cell line; 50μM, second assay): 1.6346
- OD490 value, Well 1 (Hela cell line; 50μM, second assay): 1.5694
- OD490 value, Well 2 (Hela cell line; 50μM, second assay): 1.6357
- OD490 value, Well 3 (Hela cell line; 50μM, second assay): 1.6987
- OD490 value, Mean (Hela cell line; 50μM, third assay): 1.6911
- OD490 value, Well 1 (Hela cell line; 50μM, third assay): 1.6532
- OD490 value, Well 2 (Hela cell line; 50μM, third assay): 1.7755
- OD490 value, Well 3 (Hela cell line; 50μM, third assay): 1.6445
- OD490 value, Mean (Hela cell line; 100μM, first assay): 1.1310
- OD490 value, Well 1 (Hela cell line; 100μM, first assay): 0.9154
- OD490 value, Well 2 (Hela cell line; 100μM, first assay): 1.2917
- OD490 value, Well 3 (Hela cell line; 100μM, first assay): 1.1859
- OD490 value, Mean (Hela cell line; 100μM, second assay): 1.0983
- OD490 value, Well 1 (Hela cell line; 100μM, second assay): 1.1234
- OD490 value, Well 2 (Hela cell line; 100μM, second assay): 1.1125
- OD490 value, Well 3 (Hela cell line; 100μM, second assay): 1.0589
- OD490 value, Mean (Hela cell line; 100μM, third assay): 1.1051
- OD490 value, Well 1 (Hela cell line; 100μM, third assay): 1.0232
- OD490 value, Well 2 (Hela cell line; 100μM, third assay): 1.1136
- OD490 value, Well 3 (Hela cell line; 100μM, third assay): 1.1784
- IC50 (Hela cell line; Homo sapiens, HeLa, 24 h, MTS assay, 24 h exposure): 75.6 µM
- IC50 (T24 cell line; Homo sapiens, T-24, MTS assay, 24 h exposure): 103 µM
- OD490 Mean (T24 cell line; 0.5μM, first assay): 1.7287
- OD490 Well 1 (T24 cell line; 0.5μM, first assay): 1.7105
- OD490 Well 2 (T24 cell line; 0.5μM, first assay): 1.7618
- OD490 Well 3 (T24 cell line; 0.5μM, first assay): 1.7137
- OD490 Mean (T24 cell line; 0.5μM, second assay): 1.6993
- OD490 Well 1 (T24 cell line; 0.5μM, second assay): 1.7012
- OD490 Well 2 (T24 cell line; 0.5μM, second assay): 1.6854
- OD490 Well 3 (T24 cell line; 0.5μM, second assay): 1.7112
- OD490 Mean (T24 cell line; 0.5μM, third assay): 1.6796
- OD490 Well 1 (T24 cell line; 0.5μM, third assay): 1.7151
- OD490 Well 2 (T24 cell line; 0.5μM, third assay): 1.6985
- OD490 Well 3 (T24 cell line; 0.5μM, third assay): 1.6252
- OD490 Mean (T24 cell line; 1μM, first assay): 1.7475
- OD490 Well 1 (T24 cell line; 1μM, first assay): 1.7891
- OD490 Well 2 (T24 cell line; 1μM, first assay): 1.7321
- OD490 Well 3 (T24 cell line; 1μM, first assay): 1.7213
- OD490 Mean (T24 cell line; 1μM, second assay): 1.6914
- OD490 Well 1 (T24 cell line; 1μM, second assay): 1.6854
- OD490 Well 2 (T24 cell line; 1μM, second assay): 1.6687
- OD490 Well 3 (T24 cell line; 1μM, second assay): 1.7201
- OD490 Mean (T24 cell line; 1μM, third assay): 1.6844
- OD490 Well 1 (T24 cell line; 1μM, third assay): 1.6654
- OD490 Well 2 (T24 cell line; 1μM, third assay): 1.6854
- OD490 Well 3 (T24 cell line; 1μM, third assay): 1.7023
- OD490 Mean (T24 cell line; 10μM, first assay): 1.7610
- OD490 Well 1 (T24 cell line; 10μM, first assay): 1.7529
- OD490 Well 2 (T24 cell line; 10μM, first assay): 1.7204
- OD490 Well 3 (T24 cell line; 10μM, first assay): 1.8096
- OD490 Mean (T24 cell line; 10μM, second assay): 1.6914
- OD490 Well 1 (T24 cell line; 10μM, second assay): 1.6952
- OD490 Well 2 (T24 cell line; 10μM, second assay): 1.7032
- OD490 Well 3 (T24 cell line; 10μM, second assay): 1.6758
- OD490 Mean (T24 cell line; 10μM, third assay): 1.6899
- OD490 Well 1 (T24 cell line; 10μM, third assay): 1.6523
- OD490 Well 2 (T24 cell line; 10μM, third assay): 1.6854
- OD490 Well 3 (T24 cell line; 10μM, third assay): 1.7320
- OD490 Mean (T24 cell line; 25μM, first assay): 1.6722
- OD490 Well 1 (T24 cell line; 25μM, first assay): 1.6737
- OD490 Well 2 (T24 cell line; 25μM, first assay): 1.6555
- OD490 Well 3 (T24 cell line; 25μM, first assay): 1.6875
- OD490 Mean (T24 cell line; 25μM, second assay): 1.5562
- OD490 Well 1 (T24 cell line; 25μM, second assay): 1.5784
- OD490 Well 2 (T24 cell line; 25μM, second assay): 1.5687
- OD490 Well 3 (T24 cell line; 25μM, second assay): 1.5214
- OD490 Mean (T24 cell line; 25μM, third assay): 1.5261
- OD490 Well 1 (T24 cell line; 25μM, third assay): 1.5255
- OD490 Well 2 (T24 cell line; 25μM, third assay): 1.4895
- OD490 Well 3 (T24 cell line; 25μM, third assay): 1.5632
- OD490 Mean (T24 cell line; 50μM, first assay): 1.4241
- OD490 Well 1 (T24 cell line; 50μM, first assay): 1.3950
- OD490 Well 2 (T24 cell line; 50μM, first assay): 1.4682
- OD490 Well 3 (T24 cell line; 50μM, first assay): 1.4091
- OD490 Mean (T24 cell line; 50μM, second assay): 1.2984
- OD490 Well 1 (T24 cell line; 50μM, second assay): 1.3242
- OD490 Well 2 (T24 cell line; 50μM, second assay): 1.3021
- OD490 Well 3 (T24 cell line; 50μM, second assay): 1.2688
- OD490 Mean (T24 cell line; 50μM, third assay): 1.2717
- OD490 Well 1 (T24 cell line; 50μM, third assay): 1.2854
- OD490 Well 2 (T24 cell line; 50μM, third assay): 1.2312
- OD490 Well 3 (T24 cell line; 50μM, third assay): 1.2985
- OD490 Mean (T24 cell line; 100μM, first assay): 1.1300
- OD490 Well 1 (T24 cell line; 100μM, first assay): 1.1347
- OD490 Well 2 (T24 cell line; 100μM, first assay): 1.0869
- OD490 Well 3 (T24 cell line; 100μM, first assay): 1.1684
- OD490 Mean (T24 cell line; 100μM, second assay): 1.0488
- OD490 Well 1 (T24 cell line; 100μM, second assay): 1.1133
- OD490 Well 2 (T24 cell line; 100μM, second assay): 1.0101
- OD490 Well 3 (T24 cell line; 100μM, second assay): 1.0230
- OD490 Mean (T24 cell line; 100μM, third assay): 1.0526
- OD490 Well 1 (T24 cell line; 100μM, third assay): 1.0120
- OD490 Well 2 (T24 cell line; 100μM, third assay): 1.1123
- OD490 Well 3 (T24 cell line; 100μM, third assay): 1.0334
